Measurements: patent US20120034613A1, “Apparatus and Method for Testing Relationships Between Gene Expression and Physical Appearance of Skin” (NSE Products, Inc., priority 2010, published 2012)

Test system: EpidermFT™ Skin Model (EFT-400) full thickness skin cultures
Assay: Affymetrix GeneChip HG U133 Plus 2.0 microarray global gene expression, agent-exposed vs untreated skin cultures
Assay type: cell-based, human
Conditions: 0.5%, 24 hr

## OCc1ccccc1O[C@@H]1O[C@H](CO)[C@@H](O)[C@H](O)[C@H]1O [Salicin, 2-(Hydroxymethyl)phenyl β-D-glucospyranoside]
Probe 210764_s_at
  Direction CYR61: up
  Fold change CYR61: 2.692
Probe 210845_s_at
  Direction PLAUR: up
  Fold change PLAUR: 2.249
Probe 210998_s_at
  Direction HGF: up
  Fold change HGF: 4.35
Probe 211906_s_at
  Direction SERPINB4: down
  Fold change SERPINB4: 5.613
Probe 211922_s_at
  Direction CAT: down
  Fold change CAT: 2.095
Probe 211958_at
  Direction IGFBP5: up
  Fold change IGFBP5: 2.712
Probe 211981_at
  Direction COL4A1: up
  Fold change COL4A1: 2.121
Probe 212099_at
  Direction RHOB: up
  Fold change RHOB: 3.764
Probe 212321_at
  Direction SGPL1: down
  Fold change SGPL1: 2.406
Probe 212353_at
  Direction SULF1: up
  Fold change SULF1: 4.424
Probe 212531_at
  Direction LCN2: down
  Fold change LCN2: 12.01
Probe 213093_at
  Direction PRKCA: up
  Fold change PRKCA: 2.125
Probe 213103_at
  Direction STARD13: up
  Fold change STARD13: 2.844
Probe 213418_at
  Direction HSPA6: up
  Fold change HSPA6: 14.24
Probe 213764_s_at
  Direction MFAP5: down
  Fold change MFAP5: 2.112
Probe 213820_s_at
  Direction STARD5: down
  Fold change STARD5: 3.436
Probe 213921_at
  Direction SST: up
  Fold change SST: 4.356
Probe 213933_at
  Direction PTGER3: down
  Fold change PTGER3: 13.58
Probe 213992_at
  Direction COL4A6: down
  Fold change COL4A6: 4.8
Probe 214370_at
  Direction S100A8: up
  Fold change S100A8: 2.98
Probe 214446_at
  Direction ELL2: up
  Fold change ELL2: 2.557
Probe 214702_at
  Direction FN1: up
  Fold change FN1: 2.71
Probe 214913_at
  Direction ADAMTS3: up
  Fold change ADAMTS3: 2.145
Probe 215078_at
  Direction SOD2: up
  Fold change SOD2: 5.712
Probe 215808_at
  Direction KLK10: down
  Fold change KLK10: 4.673
Probe 215910_s_at
  Direction FNDC3A: up
  Fold change FNDC3A: 3.663
Probe 216005_at
  Direction TNC: up
  Fold change TNC: 2.719
Probe 216199_s_at
  Direction MAP3K4: up
  Fold change MAP3K4: 2.654
Probe 216248_s_at
  Direction NR4A2: up
  Fold change NR4A2: 7.592
Probe 216388_s_at
  Direction LTB4R: down
  Fold change LTB4R: 2.456
Probe 216598_s_at
  Direction CCL2: up
  Fold change CCL2: 5.407
Probe 216699_s_at
  Direction KLK1: down
  Fold change KLK1: 2.169
Probe 216979_at
  Direction NR4A3: up
  Fold change NR4A3: 7.204
Probe 217738_at
  Direction NAMPT: up
  Fold change NAMPT: 2.668
Probe 217979_at
  Direction TSPAN13: down
  Fold change TSPAN13: 2.401
Probe 217997_at
  Direction PHLDA1: up
  Fold change PHLDA1: 3.409
Probe 218810_at
  Direction ZC3H12A: up
  Fold change ZC3H12A: 2.117
Probe 218922_s_at
  Direction LASS4: down
  Fold change LASS4: 3.028
Probe 218963_s_at
  Direction KRT23: down
  Fold change KRT23: 10.94
Probe 219115_s_at
  Direction IL20RA: down
  Fold change IL20RA: 12.07
Probe 219284_at
  Direction HSPBAP1: up
  Fold change HSPBAP1: 2.08
Probe 219648_at
  Direction MREG: down
  Fold change MREG: 2.887
Probe 219695_at
  Direction SMPD3: down
  Fold change SMPD3: 13.66
Probe 220054_at
  Direction IL23A: up
  Fold change IL23A: 2.967
Probe 220056_at
  Direction IL22RA1: down
  Fold change IL22RA1: 2.023
Probe 220249_at
  Direction HYAL4: down
  Fold change HYAL4: 3.117
Probe 220414_at
  Direction CALML5: down
  Fold change CALML5: 8.749
Probe 220635_at
  Direction PSORS1C2: down
  Fold change PSORS1C2: 19.08
Probe 220745_at
  Direction IL19: up
  Fold change IL19: 2.278
Probe 221470_s_at
  Direction IL1F7: down
  Fold change IL1F7: 100.5
Probe 221577_x_at
  Direction GDF15: up
  Fold change GDF15: 5.573
Probe 221667_s_at
  Direction HSPB8: down
  Fold change HSPB8: 4.659
Probe 221750_at
  Direction HMGCS1: down
  Fold change HMGCS1: 2.406
Probe 221782_at
  Direction DNAJC10: up
  Fold change DNAJC10: 2.553
Probe 221841_s_at
  Direction KLF4: down
  Fold change KLF4: 2.468
Probe 222549_at
  Direction CLDN1: down
  Fold change CLDN1: 7.758
Probe 222881_at
  Direction HPSE: down
  Fold change HPSE: 4.194
